assay: Dissociation constant, pKa of the compound; assay type: physicochemical

pKa | SMILES
6.6 | CC(=O)CC(c1ccccc1)c1c(S)c2ccccc2oc1=O (stereo unspecified)

assay: Inhibition of rat microsomal VKER

SMILES | IC50 [nM]
CC(=O)CC(c1ccccc1)c1c(Cl)c2ccccc2oc1=O (stereo unspecified) | > 500000
CC(C)=CCC/C(C)=C/CC/C(C)=C/Cc1c(O)c2ccccc2oc1=O | 98
COc1c(C(CC(C)=O)c2ccccc2)c(=O)oc2ccccc12 (stereo unspecified) | > 500000
CC(=O)CC(c1ccccc1)c1cc2ccccc2oc1=O (stereo unspecified) | > 500000
O=c1oc2ccccc2c(O)c1C1CC(c2ccc(-c3ccc(Br)cc3)cc2)Cc2ccccc21 (stereo unspecified) [BRODIFACOUM] | 150
CC(O)CC(c1ccccc1)c1c(O)c2ccccc2oc1=O (stereo unspecified) [WARFARIN ALCOHOL] | 12500
CC(=O)CC(c1ccccc1)c1c(OS(=O)(=O)C(F)(F)F)c2ccc(O)cc2oc1=O (stereo unspecified) [WARFARIN TRIFLATE] | > 500000
CC(=O)CC(c1ccccc1)c1c(O)c2ccccc2oc1=O (stereo unspecified) [WARFARIN] | 2200

The remaining lines, values ahead:

IC50 [nM] | SMILES
250000 | CC(=O)CC(c1ccccc1)c1c(O)oc2cc(O)ccc2c1=O (stereo unspecified)
12800 | CC(=O)CC(c1ccccc1)c1c(O)oc2ccc(O)cc2c1=O (stereo unspecified)
> 500000 | CC(=O)CC(c1ccccc1)c1c(SC[C@@H](NC(C)=O)C(=O)O)c2ccccc2oc1=O (stereo partly specified)
3000 | CC(=O)CC(C1=C(O)c2ccccc2C1=O)c1ccccc1 (stereo unspecified)
130 | CC(C)=CCC/C(C)=C/CC/C(C)=C/CC1=C(O)c2ccccc2C(=O)C1=O
900 | CCCCCCCC/C=C\CCCCCCCCc1c(O)c2ccccc2oc1=O
18300 | CC(=O)CC(c1ccccc1)c1c(S)c2ccccc2oc1=O (stereo unspecified)
770 | CC(=O)CC(c1ccc([N+](=O)[O-])cc1)c1c(O)c2ccccc2oc1=O (stereo unspecified) [ACENOCOUMAROL]
3100 | O=c1oc2ccccc2c(O)c1Cc1c(O)c2ccccc2oc1=O [DICUMAROL]
340 | CC(C)=CCC/C(C)=C/CC/C(C)=C/Cc1c(O)c2cc(C)c(C)cc2oc1=O [DIMETHYLFERULENOL]
79000 | CC(C)=CCc1c(O)c2ccccc2oc1=O [ISOPRENYLCOUMARIN]
1800 | CCC(c1ccccc1)c1c(O)c2ccccc2oc1=O (stereo unspecified) [PHENPROCOUMON]

From ChEMBL document CHEMBL1147163 (Bioorg Med Chem, 2007)
